Data set [1] concerns Stat3. Kind of data set: Stat3 phosphorylation and nuclear translocation in C4HD cells. Type of data set: cell-based, mouse. The procedure:
(§1) Lysates were prepared from cells subjected to the different treatments and proteins were subjected to SDS-PAGE as previously described (21). Membranes were immunoblotted with the antibodies detailed in each experiment. When phospho(p)-protein antibodies were used, filters were reprobed with total protein antibodies. Signal intensities of pErbB-2, pStat3, pSrc, pPR, pJak1, and pJak2 bands were analyzed by densitometry and normalized to total protein bands. Similarly, signal intensities of PR, cyclin D1, Stat3, and ErbB-2 bands were normalized to actin or β tubulin bands. […] The NEPER Nuclear and Cytoplasmic Extraction Reagents technique (Pierce Biotechnology) was performed as per manufacturer's instructions. Nuclear association between ErbB-2 and Stat3 was studied by performing coimmunoprecipitation experiments using 200 μg of nuclear protein lysates as described (22).
siRNAs targeting ErbB-2, Stat3, and Pr were synthesized by Dharmacon, Inc (Lafayatte, Colo.) (ErbB-2siRNA: 5′GAUGGUGCUUACUCAUUGA3′ (SEQ ID NO:8), designed to specifically knockdown mouse ErbB2 but not human ErbB-2; Stat3siRNA: 5′[…]3′ (SEQ ID NO:9) targets mouse Stat3; and 5′[…]3′ (SEQ ID NO:10) targets human Stat3; PRsiRNA: 5′[…]3′(SEQ ID NO:11)). […] Transfection of siRNAs duplexes was performed by using the DharmaFECT transfection reagent following the manufacturer's direction for 3 days. For reconstitution experiments cotransfection of 25 nM ErbB-2 siRNA with 2 μg expression vectors was performed using DharmaFECT Duo transfection reagent (Dharmacon).
(§2) Cells grown on glass coverslips were fixed and permeabilized in ice-cold methanol and were then blocked with PBS 1% BSA. ErbB-2 was localized using either a rabbit polyclonal (C-18) or a mouse monoclonal (F-11) ErbB-2 antibody (Santa Cruz Biotechnology) and Stat3 was detected using a mouse monoclonal antibody (124H6, Cell Signaling), followed by incubation with a goat anti-rabbit IgG-Alexa 488 (Molecular Probes, Eugene, Oreg.) secondary antibody for ErbB-2 (C-18) and with a rhodamine conjugated goat anti-mouse secondary antibody (Jackson ImmunoResearch Laboratories, West Grove, Pa.) for both ErbB2 (F-11) and Stat3. Negative controls were carried out using PBS instead of primary antibodies, or 5× competitive peptide (Santa Cruz Biotechnology) when ErbB-2 (C-18) was used. When cells were transfected with hErbB-2ΔNLS, green fluorescent protein from this expression vector was visualized by direct fluorescence imaging. […] FIGS. 2A, 3B and C, illustrate a few cells representative of the ones examined. Cells were analyzed using a Nikon Eclipse E800 confocal laser microscopy system (22).

Another data set deals with cyclin D1. Kind of data set: Cyclin D1 protein levels by Western blot in C4HD cells. Type of data set: cell-based, mouse. The settings on record: C4HD cells preincubated or transfected, then MPA for 48 h. The protocol:
(§3) Primary cultures of epithelial cells from C4HD tumors were performed as described (2). T47D cells were obtained from American Type Culture Collection and T47D-Y cells were a generous gift from Dr. K. Horwitz (Denver, Colo.). To evaluate the effects of the pharmacological inhibitors on MPA-induced proteins phosphorylation or cyclin D1 expression, cells were preincubated for 90 min with RU486, PP2, Tyrphostin AG825 or Jak inhibitor I before addition of MPA. Cell proliferation was evaluated by [3H]-thymidine incorporation assay and cell cycle distribution was analyzed by flow cytometry, as described (22).
as §1, with “Nuclear association between ErbB-2 and Stat3 was studied by performing coimmunoprecipitation experiments using 200 μg of nuclear protein lysates as described (22).” left out

For data set [2], the system named is ErbB-2. Kind of data set: ErbB-2 cellular localization (subcellular fractionation/immunoblot, confocal microscopy) in T47D cells. Type of data set: cell-based, human. The settings on record: T47D cells pretreated with inhibitor before MPA. The protocol:
(§4) Lysates were prepared from cells subjected to the different treatments and proteins were subjected to SDS-PAGE as previously described (21). Membranes were immunoblotted with the antibodies detailed in each experiment. When phospho(p)-protein antibodies were used, filters were reprobed with total protein antibodies. Signal intensities of pErbB-2, pStat3, pSrc, pPR, pJak1, and pJak2 bands were analyzed by densitometry and normalized to total protein bands. Similarly, signal intensities of PR, cyclin D1, Stat3, and ErbB-2 bands were normalized to actin or β tubulin bands. […]
(§5) Cells grown on glass coverslips were fixed and permeabilized in ice-cold methanol and were then blocked with PBS 1% BSA. ErbB-2 was localized using either a rabbit polyclonal (C-18) or a mouse monoclonal (F-11) ErbB-2 antibody (Santa Cruz Biotechnology) and Stat3 was detected using a mouse monoclonal antibody (124H6, Cell Signaling), followed by incubation with a goat anti-rabbit IgG-Alexa 488 (Molecular Probes, Eugene, Oreg.) secondary antibody for ErbB-2 (C-18) and with a rhodamine conjugated goat anti-mouse secondary antibody (Jackson ImmunoResearch Laboratories, West Grove, Pa.) for both ErbB2 (F-11) and Stat3. […] When cells were transfected with hErbB-2ΔNLS, green fluorescent protein from this expression vector was visualized by direct fluorescence imaging. […]

For data set [3], the system named is ErbB-2. Kind of data set: ErbB-2 cellular localization (subcellular fractionation/immunoblot, confocal microscopy) in C4HD cells. Type of data set: cell-based, mouse. To be noted: C4HD cells pretreated with inhibitor before MPA. The procedure: as §4, §5
(In general: Immunoblotting shows a protein as a band on a membrane.)

In data set [4] the test system is ErbB-2. Kind of data set: ErbB-2 tyrosine phosphorylation by Western blot in T47D cells. Type of data set: cell-based, human. The settings on record: T47D cells preincubated with inhibitor before MPA. The procedure: as §3, §1
Data set [5] concerns Stat3. Kind of data set: Stat3 phosphorylation and nuclear translocation in T47D cells. The settings on record: T47D cells pretreated with inhibitor before MPA. Type of data set: cell-based, human. The protocol:
as §1, §2

In data set [6] the test system is ErbB-2. Kind of data set: ErbB-2 tyrosine phosphorylation by Western blot in C4HD cells. Type of data set: cell-based, mouse. To be noted: C4HD cells preincubated with inhibitor or transfected with siRNA before MPA. The protocol:
as §3
as §1, with “Nuclear association between ErbB-2 and Stat3 was studied by performing coimmunoprecipitation experiments using 200 μg of nuclear protein lysates as described (22).” left out

For data set [7], the system named is cyclin D1 promoter. Kind of data set: Human cyclin D1 promoter luciferase reporter in T47D cells. Type of data set: cell-based. To be noted: pretreatment or cotransfection, MPA 24 h. An excerpt:
(§6) The luciferase reporter plasmid downstream the cyclin D1 human promoter region (−1745 cyclin D1-luc), and constructs truncated at positions −963, −261, −141, were kindly provided by Dr. R. Pestell (Northwestern University Medical School, Chicago, Ill.). These constructs were generated by truncation of the 1745-bp length promoter in order to sequentially exclude 5′ regions of the promoter. The −963 cyclin D1-luc construct excludes one GAS site (−984), the −261 cyclin D1-luc excludes three GAS sites (−984, −568 and −475) and the −141 cyclin D1-luc excludes four GAS sites (−984, −568, −475 and −239). The empty vector pA3 Luc was also provided by Dr. R. Pestell. The luciferase reporter plasmid containing four copies of the m67 high-affinity binding site (p4×m67-tk-luc) and the pTATA-tk-Luc reporter lacking the m67 insertion were a gift from Dr J. Darnell (The Rockefeller University, New York, N.Y.). The Renilla luciferase expression plasmid RLCMV was obtained from Promega (Madison, Wis.). […] Triplicate samples were analyzed for each datum point. Differences between experimental groups were analyzed by ANOVA followed by Tukey test between groups.
Background: Reporter assays use an easily measured gene product as a stand-in for the process of interest.

Data set [8] has as its system cyclin D1 promoter. Kind of data set: Human cyclin D1 promoter luciferase reporter in C4HD cells. To be noted: for MPA-induced cyclin D1 promoter activation: pretreatment or cotransfection, MPA 24 h. Type of data set: cell-based, mouse. An excerpt: The luciferase reporter plasmid downstream the cyclin D1 human promoter region (−1745 cyclin D1-luc), and constructs truncated at positions −963, −261, −141, were kindly provided by Dr. R. Pestell (Northwestern University Medical School, Chicago, Ill.). These constructs were generated by truncation of the 1745-bp length promoter in order to sequentially exclude 5′ regions of the promoter. The −963 cyclin D1-luc construct excludes one GAS site (−984), the −261 cyclin D1-luc excludes three GAS sites (−984, −568 and −475) and the −141 cyclin D1-luc excludes four GAS sites (−984, −568, −475 and −239). The empty vector pA3 Luc was also provided by Dr. R. Pestell. The luciferase reporter plasmid containing four copies of the m67 high-affinity binding site (p4×m67-tk-luc) and the pTATA-tk-Luc reporter lacking the m67 insertion were a gift from Dr J. Darnell (The Rockefeller University, New York, N.Y.). The Renilla luciferase expression plasmid RLCMV was obtained from Promega (Madison, Wis.). Dominant negative Stat3 expression vector, Stat3Y705-F, which carries a tyrosine to phenylalanine substitution at codon 705 that reduces phosphorylation on tyrosine of the wild-type Stat3 protein, therefore inhibiting both dimerization and DNA binding of Stat3 (6,7,16) was kindly provided by Dr J. Darnell (New York, USA). The empty pcDNA3.1 vector was also a gift of Dr J. Darnell. Human wild-type ErbB-2 expression vector (hErbB-2WT) as well as the empty pMe18SM vector were a gift from by Dr. T. Yamamoto (University of Tokyo, Japan) (1). The GFP-tagged human ErbB-2 mutant which lacks the putative nuclear localization signal sequence (aa 676-KRRQQKIRKYTMRR-689) (SEQ ID NO:3), resulting in the sequence of KLM at the deletion junction (hErbB-2ΔNLS), was generously provided by Dr. M. C. Hung (The University of Texas M.D. Anderson Cancer Center, Houston, Tex.) (Giri et al., 2005). The empty pEGFP-N1 vector was obtained from BD Biosciences Clontech (Palo Alto, Calif.). The plasmid encoding the human wild-type hPR-B was kindly provided by Dr. K. Horwitz. In experiments assessing MPA capacity to induce the transcriptional activation of Stat3, C4HD and T47D cells were transiently transfected for 48 h with 1 μg of −1745 cyclin D1-luc reporter plasmid or the truncated −963, −261 and −141 constructs, or with 1 μg p4×m67-tk-luc and 10 ng of RL-CMV used to correct variations in transfection efficiency. As control, cells were transfected with 1 μg of either the pA3 Luc or pTATA-tk-Luc reporters. Cells were cotransfected with 2 μg of Stat3Y705-F when indicated. Total amount of transfected DNA was standardized by adding the empty pcDNA3.1 vector. […] Triplicate samples were analyzed for each datum point. Differences between experimental groups were analyzed by ANOVA followed by Tukey test between groups.

For data set [9], the system named is Stat3. Kind of data set: m67 Stat3 binding site luciferase reporter in T47D cells. Type of data set: cell-based, human. The settings on record: cotransfection.
Description: as §6

Data set [10] has as its system Stat3. Kind of data set: m67 Stat3 binding site luciferase reporter in C4HD cells. Type of data set: cell-based, mouse. To be noted: cotransfection.
Description: as §6

From US9427458B2, “Methods for inhibiting cancer cell proliferation” (Consejo Nacional de Investigaciones Cientificas y Tecnicas, …, priority 2010, dated 2016) come the findings set out here.

“Also recorded” adds a separate entry of the source.

Regarding “5′GAUGGUGCUUACUCAUUGA3′ (other strand missing, further chemistry not given here) [ErbB-2 siRNAs, siRNA designed to specifically knockdown mouse ErbB2 but not human ErbB-2]”, the “MPA-induced Stat3 phosphorylation” value in the data set with Stat3 [1] (C4HD cells transfected with siRNAs to knock down mouse ErbB-2) is “inhibited”.

“5′GGUCAAAUUUCCUGAGUUGUU3′ (other strand missing, further chemistry not given here) [Stat3 siRNAs, siRNA that targets mouse Stat3]”: the “MPA-induced cyclin D1 protein levels” value in the data set on cyclin D1 is reported as “abrogated”.

As for `COc1cc(/C=C(\C#N)C(N)=O)cc(CSc2nc3ccccc3s2)c1O` [AG825], the “MPA-induced Stat3 nuclear migration” value in the data set on Stat3 [1] (C4HD cells pretreated with inhibitor before MPA) and in the data set on Stat3 [5] was “absolutely prevented” in each case. The “MPA-induced ErbB-2 nuclear translocation” value in the data set with ErbB-2 [2] and with ErbB-2 [3] was “abrogated; also recorded: significantly inhibited” throughout. Moreover, the “MPA-induced ErbB-2 phosphorylation” value with ErbB-2 [4] and in the data set on ErbB-2 [6] was “prevented” throughout.

As for “Stat3Y705-F: Dominant negative Stat3 expression vector, tyrosine to phenylalanine substitution at codon 705”, the “MPA-induced cyclin D1 promoter activation” value in the data set with cyclin D1 promoter [7] and in the data set on cyclin D1 promoter [8] was “absolutely inhibited” in each case.

Turning to “hErbB-2WT: Human wild-type ErbB-2 expression vector”, the “MPA-induced Stat3 transcriptional activation (m67 reporter)” value in the data set with Stat3 [9] and with Stat3 [10] was “significantly enhanced” throughout. Moreover, the “Stat3 Tyr705 phosphorylation upon MPA stimulation” value in the data set with Stat3 [1] (Transfected C4HD cells versus wild-type C4HD cells also stimulated with MPA) was “higher levels”. Also, the “basal levels of Stat3 transcriptional activity” value in the data set on cyclin D1 promoter [8] (absence of MPA) is “did not modulate”. For the same compound, the “MPA-induced cyclin D1 promoter activation” value in the data set with cyclin D1 promoter [8] is recorded as “significantly enhanced”.
